Measurements taken from patent US11434242B2, “Dopamine-b-hydroxylase inhibitors” (BIAL-PORTELA & Cª, S.A., priority 2017, dated 2022).
Structures can show the parent of a compound that is named as a salt.

Biological target: T1, Dopamine beta hydroxylase (Homo sapiens, UniProt P09172)
T1 construct: 125 μl of plasma; tissue Instituto Português do Sangue Transplantação; host or cells: human plasma from healthy donors
T1 sequence (P09172 40-617 limits assumed): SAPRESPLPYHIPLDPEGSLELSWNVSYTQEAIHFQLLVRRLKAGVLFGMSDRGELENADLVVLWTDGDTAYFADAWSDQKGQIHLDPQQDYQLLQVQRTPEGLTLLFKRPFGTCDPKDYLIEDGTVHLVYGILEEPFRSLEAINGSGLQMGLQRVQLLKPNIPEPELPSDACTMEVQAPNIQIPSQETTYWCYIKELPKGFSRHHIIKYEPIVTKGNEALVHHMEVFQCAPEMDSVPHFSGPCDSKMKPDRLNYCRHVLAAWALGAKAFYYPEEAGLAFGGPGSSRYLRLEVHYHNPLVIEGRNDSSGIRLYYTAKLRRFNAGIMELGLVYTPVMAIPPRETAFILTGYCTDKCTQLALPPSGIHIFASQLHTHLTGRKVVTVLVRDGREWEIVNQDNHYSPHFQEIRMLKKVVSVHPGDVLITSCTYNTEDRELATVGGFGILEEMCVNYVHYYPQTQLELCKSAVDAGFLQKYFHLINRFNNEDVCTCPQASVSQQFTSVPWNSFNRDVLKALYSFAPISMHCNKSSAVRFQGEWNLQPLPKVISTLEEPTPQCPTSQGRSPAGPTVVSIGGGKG
Assay: Dopamine beta hydroxylase activity in human plasma
Assay type: biochemical
Conditions: for Plasma (0.01 μM), activity in % of control: inhibitor 0.01 μM; for Plasma (0.1 μM), activity in % of control: inhibitor 0.1 μM
Method in brief: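 Octopamine production from tyramine over 45 min at 37° C, measured photometrically at 330 nm after SCX extraction and periodate oxidation against an octopamine standard curve, indicates plasma DβH activity. Compounds tested at final 10, 100 and 1000 nM in human plasma, pH 5.0 cofactor buffer, 10 min preincubation; results as % of control.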

Structure (SMILES) | Plasma (0.01 μM), activity in % of control | Plasma (0.1 μM), activity in % of control
O=C(CCc1[nH]c(=S)n2c1C[C@H](c1c(F)c(F)cc(F)c1F)C2)N1CCCC1 [Example 204, (R)-1-(pyrrolidin-1-yl)-3-(6-(2,3,5,6-tetrafluorophenyl)-3-thioxo-2,5,6,7-tetrahydro-3H-pyrrolo[1,2-c]imidazol-1-yl)propan-1-one] | 26.5 % of control | 1.1 % of control
O=C(CCc1[nH]c(=S)n2c1C[C@H](c1c(F)c(F)cc(F)c1F)C2)N1CCOCC1 [Example 205, (R)-1-morpholino-3-(6-(2,3,5,6-tetrafluorophenyl)-3-thioxo-2,5,6,7-tetrahydro-3H-pyrrolo[1,2-c]imidazol-1-yl)propan-1-one] | 76.9 % of control | 18.2 % of control
O=C(CCc1[nH]c(=S)n2c1C[C@H](c1c(F)c(F)cc(F)c1F)C2)N1CCC(F)(F)CC1 [Example 206, (R)-1-(4,4-difluoropiperidin-1-yl)-3-(6-(2,3,5,6-tetrafluorophenyl)-3-thioxo-2,5,6,7-tetrahydro-3H-pyrrolo[1,2-c]imidazol-1-yl)propan-1-one] | 22.4 % of control | 8.7 % of control
O=C(CCc1[nH]c(=S)n2c1C[C@H](c1c(F)c(F)cc(F)c1F)C2)N1CCCCC1 [Example 207, (R)-1-(piperidin-1-yl)-3-(6-(2,3,5,6-tetrafluorophenyl)-3-thioxo-2,5,6,7-tetrahydro-3H-pyrrolo[1,2-c]imidazol-1-yl)propan-1-one] | 76.6 % of control | 30.2 % of control
CC1CCN(C(=O)CCc2[nH]c(=S)n3c2C[C@H](c2c(F)c(F)cc(F)c2F)C3)CC1 [Example 208, (R)-1-(4-methylpiperidin-1-yl)-3-(6-(2,3,5,6-tetrafluorophenyl)-3-thioxo-2,5,6,7-tetrahydro-3H-pyrrolo[1,2-c]imidazol-1-yl)propan-1-one] | 62.0 % of control | 13.3 % of control
Fc1cc(F)c(F)c([C@H]2Cc3c(CN4CCOCC4)[nH]c(=S)n3C2)c1F [Example 209, (R)-1-(morpholinomethyl)-6-(2,3,5,6-tetrafluorophenyl)-6,7-dihydro-2H-pyrrolo[1,2-c]imidazole-3(5H)-thione Hydrochloride] | 87.6 % of control | 60.3 % of control
Cl.Fc1cc(F)c(F)c([C@H]2Cc3c(CN4CCCC4)[nH]c(=S)n3C2)c1F [Example 210, (R)-1-(pyrrolidin-1-ylmethyl)-6-(2,3,5,6-tetrafluorophenyl)-2,5,6,7-tetrahydro-3H-pyrrolo[1,2-c]imidazole-3-thione hydrochloride] | 94.6 % of control | 73.5 % of control
CN(CCO)Cc1[nH]c(=S)n2c1C[C@H](c1c(F)c(F)cc(F)c1F)C2.Cl [Example 211, (R)-1-(((2-hydroxyethyl)(methyl)amino)methyl)-6-(2,3,5,6-tetrafluorophenyl)-2,5,6,7-tetrahydro-3H-pyrrolo[1,2-c]imidazole-3-thione hydrochloride] | 104.9 % of control | 94.8 % of control
Fc1cc(F)c(F)c([C@H]2Cc3c(CCc4cccnc4)[nH]c(=S)n3C2)c1F [Example 212, (R)-1-(2-(pyridin-3-yl)ethyl)-6-(2,3,5,6-tetrafluorophenyl)-6,7-dihydro-2H-pyrrolo[1,2-c]imidazole-3(5H)-thione] | 86.5 % of control | 46 % of control
Fc1cc(F)c(F)c([C@H]2Cc3c(CCc4ccccn4)[nH]c(=S)n3C2)c1F [Example 213, (R)-1-(2-(pyridin-2-yl)ethyl)-6-(2,3,5,6-tetrafluorophenyl)-2,5,6,7-tetrahydro-3H-pyrrolo[1,2-c]imidazole-3-thione] | 105.9 % of control | 66.6 % of control
Fc1ccc(Br)c(F)c1[C@H]1Cc2c(CCc3cccnc3)[nH]c(=S)n2C1 [Example 214, (R)-6-(3-bromo-2,6-difluorophenyl)-1-(2-(pyridin-3-yl)ethyl)-2,5,6,7-tetrahydro-3H-pyrrolo[1,2-c]imidazole-3-thione] | 109.1 % of control | 72.1 % of control
Cl.Fc1ccc(Cl)c(F)c1[C@@H]1Cc2c(CCc3cccnc3)[nH]c(=S)n2C1 [Example 215, (S)-6-(3-chloro-2,6-difluorophenyl)-1-(2-(pyridin-3-yl)ethyl)-2,5,6,7-tetrahydro-3H-pyrrolo[1,2-c]imidazole-3-thione Hydrochloride] | 74.3 % of control | 34.2 % of control
CCOCCCc1[nH]c(=S)n2c1C[C@H](c1c(F)c(F)cc(F)c1F)C2 [Example 216, (R)-1-(3-ethoxypropyl)-6-(2,3,5,6-tetrafluorophenyl)-2,5,6,7-tetrahydro-3H-pyrrolo[1,2-c]imidazole-3-thione] | 84.5 % of control | 47.1 % of control
Cn1ccnc1CCc1[nH]c(=S)n2c1C[C@H](c1c(F)c(F)cc(F)c1F)C2 [Example 217, (R)-1-(2-(1-methyl-1H-imidazol-2-yl)ethyl)-6-(2,3,5,6-tetrafluorophenyl)-2,5,6,7-tetrahydro-3H-pyrrolo[1,2-c]imidazole-3-thione] | 99.8 % of control | 92.3 % of control
Fc1cc(F)c(F)c([C@H]2Cc3c(CCc4ccncc4)[nH]c(=S)n3C2)c1F [Example 218, (R)-1-(2-(pyridin-4-yl)ethyl)-6-(2,3,5,6-tetrafluorophenyl)-2,5,6,7-tetrahydro-3H-pyrrolo[1,2-c]imidazole-3-thione] | 89.2 % of control | 69.1 % of control
O=C(NCc1[nH]c(=S)n2c1C[C@@H](c1c(F)ccc(Cl)c1F)C2)C1CC1 [Example 220, (S)—N-((6-(3-chloro-2,6-difluorophenyl)-3-thioxo-3,5,6,7-tetrahydro-2H-pyrrolo[1,2-c]imidazol-1-yl)methyl)cyclopropanecarboxamide] | 76.5 % of control | 17.7 % of control
O=C(NCc1[nH]c(=S)n2c1C[C@@H](c1c(F)ccc(Cl)c1F)C2)C1CCCC1 [Example 221, (S)—N-((6-(3-chloro-2,6-difluorophenyl)-3-thioxo-2,5,6,7-tetrahydro-3H-pyrrolo[1,2-c]imidazol-1-yl)methyl)cyclopentanecarboxamide] | 79.3 % of control | 30.0 % of control
O=C(NCc1[nH]c(=S)n2c1C[C@@H](c1c(F)ccc(Cl)c1F)C2)C1CCOCC1 [Example 222, (S)—N-((6-(3-chloro-2,6-difluorophenyl)-3-thioxo-2,5,6,7-tetrahydro-3H-pyrrolo[1,2-c]imidazol-1-yl)methyl)tetrahydro-2H-pyran-4-carboxamide] | 73.6 % of control | 12.9 % of control
